Test results published in US9440956B2, “Indole, indazole and benzimidazole arylamides as P2X3 and P2X2/3 antagonists” (Roche Palo Alto LLC, priority 2010, dated 2016).

Assays:
[1] = target: T1, rat P2X3 receptor (Rattus norvegicus, UniProt P49654); experiment: P2X3 FLIPR (Fluorometric Imaging Plate Reader) assay; assay type: cell-based; settings: CHO-K1 cells transfected with cloned rat P2X3; agonist α,β-meATP 1 μM; Fluo-3 calcium fluorescence
T1 construct: expressed in transfected cells; host or cells: CHO-K1
T1 sequence (P49654 1-397): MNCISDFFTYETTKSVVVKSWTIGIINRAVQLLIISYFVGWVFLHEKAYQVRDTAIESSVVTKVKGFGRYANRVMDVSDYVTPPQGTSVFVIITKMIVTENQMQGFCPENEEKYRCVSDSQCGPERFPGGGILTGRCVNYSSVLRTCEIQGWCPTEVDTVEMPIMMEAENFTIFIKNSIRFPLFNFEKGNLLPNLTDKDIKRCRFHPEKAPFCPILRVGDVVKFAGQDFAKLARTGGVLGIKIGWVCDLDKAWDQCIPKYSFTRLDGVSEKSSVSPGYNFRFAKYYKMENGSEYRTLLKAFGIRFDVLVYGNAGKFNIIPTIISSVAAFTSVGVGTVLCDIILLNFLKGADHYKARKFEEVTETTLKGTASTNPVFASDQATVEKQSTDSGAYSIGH
Description: (§1) P2X3/P2X2/3 FLIPR (Fluorometric Imaging Plate Reader) Assay
(§2) CHO-K1 cells were transfected with cloned rat P2X3 or human P2X2/3 receptor subunits and passaged in flasks. 18-24 hours before the FLIPR experiment, cells were released from their flasks, centrifuged, and resuspended in nutrient medium at 2.5×10^5 cells/ml. The cells were aliquoted into black-walled 96-well plates at a density of 50,000 cells/well and incubated overnight in 5% CO2 at 37° C. On the day of the experiment, cells were washed in FLIPR buffer (calcium- and magnesium-free Hank's balanced salt solution, 10 mM HEPES, 2 mM CaCl2, 2.5 mM probenecid; FB). Each well received 100 μl FB and 100 μl of the fluorescent dye Fluo-3 AM [2 μM final conc.]. After a 1 hour dye loading incubation at 37° C., the cells were washed 4 times with FB, and a final 75 μl/well FB was left in each well.
(§3) Test compounds (dissolved in DMSO at 10 mM and serially diluted with FB) or vehicle were added to each well (25 μl of a 4× solution) and allowed to equilibrate for 20 minutes at room temperature. The plates were then placed in the FLIPR and a baseline fluorescence measurement (excitation at 488 nm and emission at 510-570 nm) was obtained for 10 seconds before a 100 μl/well agonist or vehicle addition. The agonist was a 2× solution of α,β-meATP producing a final concentration of 1 μM (P2X3) or 5 μM (P2X2/3). Fluorescence was measured for an additional 2 minutes at 1 second intervals after agonist addition. A final addition of ionomycin (5 μM, final concentration) was made to each well of the FLIPR test plate to establish cell viability and maximum fluorescence of dye-bound cytosolic calcium. Peak fluorescence in response to the addition of α,β-meATP (in the absence and presence of test compounds) was measured and inhibition curves generated using nonlinear regression. PPADS, a standard P2X antagonist, was used as a positive control.

[2] = target: T2, human P2X2/3 receptor (Homo sapiens, UniProt P56373+Q9UBL9); experiment: P2X2/3 FLIPR (Fluorometric Imaging Plate Reader) assay; assay type: cell-based; settings: CHO-K1 cells transfected with human P2X2/3; agonist α,β-meATP 5 μM; Fluo-3 calcium fluorescence
T2 construct: expressed in transfected cells; host or cells: CHO-K1
T2 sequence (Q9UBL9 1-471): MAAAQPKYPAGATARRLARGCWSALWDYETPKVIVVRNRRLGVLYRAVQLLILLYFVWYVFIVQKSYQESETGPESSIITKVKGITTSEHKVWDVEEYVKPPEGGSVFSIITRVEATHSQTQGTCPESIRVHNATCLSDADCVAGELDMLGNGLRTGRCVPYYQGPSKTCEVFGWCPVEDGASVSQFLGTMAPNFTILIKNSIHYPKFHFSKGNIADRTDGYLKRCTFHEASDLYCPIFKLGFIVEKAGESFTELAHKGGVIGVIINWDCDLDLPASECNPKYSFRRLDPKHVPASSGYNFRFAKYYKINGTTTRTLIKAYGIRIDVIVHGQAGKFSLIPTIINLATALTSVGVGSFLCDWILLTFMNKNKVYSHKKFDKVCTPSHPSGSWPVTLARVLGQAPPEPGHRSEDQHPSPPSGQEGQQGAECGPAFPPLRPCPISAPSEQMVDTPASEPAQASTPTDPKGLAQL
T2 sequence (P56373 1-397): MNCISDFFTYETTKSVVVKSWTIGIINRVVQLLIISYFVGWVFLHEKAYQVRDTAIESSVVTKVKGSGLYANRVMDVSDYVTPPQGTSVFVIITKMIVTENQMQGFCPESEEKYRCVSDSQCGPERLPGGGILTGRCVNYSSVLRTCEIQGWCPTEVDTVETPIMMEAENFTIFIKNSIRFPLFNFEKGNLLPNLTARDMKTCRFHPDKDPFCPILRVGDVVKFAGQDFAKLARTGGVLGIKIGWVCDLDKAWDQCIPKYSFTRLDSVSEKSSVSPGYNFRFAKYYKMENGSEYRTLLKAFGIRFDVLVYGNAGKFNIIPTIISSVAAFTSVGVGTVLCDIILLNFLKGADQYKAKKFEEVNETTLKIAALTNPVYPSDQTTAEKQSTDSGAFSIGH
Description: as §1, §2, §3

SMILES | pKi P2X3 [1] | pKi P2X2/3 [2]
Cc1ccc(-c2cc(C(=O)NCc3cnc(C)cn3)cc3c2cnn3CC(C)C)nc1 [Compound 1, 1-Isobutyl-4-(5-methyl-pyridin-2-yl)-1H-indazole-6-carboxylic acid (5-methyl-pyrazin-2-ylmethyl)-amide] | 7.3 | 5.78
CCCCn1ncc2c(-c3ccc(C)cn3)cc(C(=O)NCc3cnc(C)cn3)cc21 [Compound 2, 1-Butyl-4-(5-methyl-pyridin-2-yl)-1H-indazole-6-carboxylic acid (5-methyl-pyrazin-2-ylmethyl)-amide] | 7.38 | 6.34
CCCCn1ncc2c(-c3ccc(C)cn3)cc(C(=O)N[C@@H](C)CO)cc21 [Compound 3, 1-Butyl-4-(5-methyl-pyridin-2-yl)-1H-indazole-6-carboxylic acid ((S)-2-hydroxy-1-methyl-ethyl)-amide] | 6.31 | 
Cc1ccc(-c2cc(C(=O)NCc3cnc(C)cn3)cc3c2cnn3C(C)C)nc1 [Compound 4, 1-Isopropyl-4-(5-methyl-pyridin-2-yl)-1H-indazole-6-carboxylic acid (5-methyl-pyrazin-2-ylmethyl)-amide] | 6.58 | 4.92
Cc1ccc(-c2cc(C(=O)N[C@@H](C)CO)cc3c2cnn3C(C)C)nc1 [Compound 5, 1-Isopropyl-4-(5-methyl-pyridin-2-yl)-1H-indazole-6-carboxylic acid ((S)-2-hydroxy-1-methyl-ethyl)-amide] |  | 5
COCCn1ncc2c(-c3ccc(C)cn3)cc(C(=O)NCc3cnc(C)cn3)cc21 [Compound 6, 1-(2-Methoxy-ethyl)-4-(5-methyl-pyridin-2-yl)-1H-indazole-6-carboxylic acid (5-methyl-pyrazin-2-ylmethyl)-amide] | 5.51 | 5
Cc1ccc(-c2cc(C(=O)NCc3cnc(C)cn3)cc3c2cnn3CCC(C)C)nc1 [Compound 7, 1-(3-Methyl-buty)-4-(5-methyl-pyridin-2-yl)-1H-indazole-6-carboxylic acid (5-methyl-pyrazin-2-ylmethyl)-amide] | 7.47 | 6.17
Cc1ccc(-c2cc(C(=O)NCc3ccc(C)nn3)cc3c2cnn3CCC(C)C)nc1 [Compound 8, 1-(3-Methyl-butyl)-4-(5-methyl-pyridin-2-yl)-1H-indazole-6-carboxylic acid (6-methyl-pyridazin-3-ylmethyl)-amide] | 7.66 | 6.23
Cc1ccc(-c2cc(C(=O)NCc3cnc(C)cn3)cc3c2cnn3Cc2ccccc2)nc1 [Compound 9, 1-Benzyl-4-(5-methyl-pyridin-2-yl)-1H-indazole-6-carboxylic acid (5-methyl-pyrazin-2-ylmethyl)-amide] | 7.25 | 6.25
Cc1ccc(-c2cc(C(=O)N[C@@H](C)CO)cc3c2cnn3Cc2ccccc2)nc1 [Compound 10, 1-Benzyl-4-(5-methyl-pyridin-2-yl)-1H-indazole-6-carboxylic acid ((S)-2-hydroxy-1-methyl-ethyl)-amide] | 6.2 | 5.61
Cc1ccc(-c2cc(C(=O)NCc3ccc(C)nn3)cc3c2cnn3Cc2ccccc2)nc1 [Compound 11, 1-Benzyl-4-(5-methyl-pyridin-2-yl)-1H-indazole-6-carboxylic acid (6-methyl-pyridazin-3-ylmethyl)-amide] | 7.62 | 6.56
Cc1ccc(-c2cc(C(=O)NCc3cnc(C)cn3)cc3c2cnn3CC(F)(F)F)nc1 [Compound 12, 4-(5-Methyl-pyridin-2-yl)-1-(2,2,2-trifluoro-ethyl)-1H-indazole-6-carboxylic acid (5-methyl-pyrazin-2-ylmethyl)-amide] | 6.52 | 5.7
Cc1ccc(-c2cc(C(=O)NCc3ccc(C)nn3)cc3c2cnn3CC(F)(F)F)nc1 [Compound 13, 4-(5-Methyl-pyridin-2-yl)-1-(2,2,2-trifluoro-ethyl)-1H-indazole-6-carboxylic acid (6-methyl-pyridazin-3-ylmethyl)-amide] | 7.19 | 6.51
Cc1ccc(-c2cc(C(=O)NCc3cnc(C)cn3)cc3c2cnn3-c2ccccc2)nc1 [Compound 14, 4-(5-Methyl-pyridin-2-yl)-1-phenyl-1H-indazole-6-carboxylic acid (5-methyl-pyrazin-2-ylmethyl)-amide] | 7.44 | 6.54
Cc1ccc(-c2cc(C(=O)N[C@@H](C)CO)cc3c2cnn3-c2ccccc2)nc1 [Compound 15, 4-(5-Methyl-pyridin-2-yl)-1-phenyl-1H-indazole-6-carboxylic acid ((S)-2-hydroxy-1-methyl-ethyl)-amide] | 6.19 | 5.34
Cc1ccc(-n2ncc3c(-c4ccc(C)cn4)cc(C(=O)NCc4cnc(C)cn4)cc32)cc1 [Compound 16, 4-(5-Methyl-pyridin-2-yl)-1-p-tolyl-1H-indazole-6-carboxylic acid (5-methyl-pyrazin-2-ylmethyl)-amide] | 7.7 | 6.4
Cc1ccc(-n2ncc3c(-c4ccc(C)cn4)cc(C(=O)N[C@@H](C)CO)cc32)cc1 [Compound 17, 4-(5-Methyl-pyridin-2-yl)-1-p-tolyl-1H-indazole-6-carboxylic acid ((S)-2-hydroxy-1-methyl-ethyl)-amide] | 7.38 | 4.97
Cc1ccc(-c2cc(C(=O)NCc3cnc(C)cn3)cc3c2ccn3C(C)C)nc1 [Compound 26, 1-Isopropyl-4-(5-methyl-pyridin-2-yl)-1H-indole-6-carboxylic acid (5-methyl-pyrazin-2-ylmethyl)-amide] | 6.26 | 
Cc1ccc(-c2cc(C(=O)N[C@@H](C)CO)cc3c2ccn3C(C)C)nc1 [Compound 27, 1-Isopropyl-4-(5-methyl-pyridin-2-yl)-1H-indole-6-carboxylic acid ((S)-2-hydroxy-1-methyl-ethyl)-amide] | 5.48 | 
Cc1ccc(-c2cc(C(=O)NCc3cnc(C)cn3)cc3c2ncn3CC(C)C)nc1 [Compound 28, 3-Isobutyl-7-(5-methyl-pyridin-2-yl)-3H-benzoimidazole-5-carboxylic acid (5-methyl-pyrazin-2-ylmethyl)-amide] | 6.46 | 
Cc1ccc(-c2cc(C(=O)N[C@@H](C)CO)cc3c2ncn3CC(C)C)nc1 [Compound 29, 3-Isobutyl-7-(5-methyl-pyridin-2-yl)-3H-benzoimidazole-5-carboxylic acid ((S)-2-hydroxy-1-methyl-ethyl)-amide] | 5.24 | 
